Assay results published in PubChem BioAssay AID1645848.
≈ marks a conversion by molar mass, not a printed value.

Details: buffer; pH 7.4; 6.0 h; 150.0 µM

Compound	solubility kinetic
NC(=O)C1CCN(c2ncc(Br)cn2)CC1	> 42 µg/mL
O=C(Nc1nc2cc(C(F)(F)F)cc(NC3CC3)n2n1)c1cccnc1	< 1 µg/mL
Cc1ccc(-c2[nH]n3c(=O)c4c(nc3c2C)CCCC4)cc1	1.03 µg/mL (≈ 3.52 µM)
Cc1cc(CNC(=O)c2ccc3c(c2)n(CC2CC2)c(=O)n3C2CCCCC2)on1	15.6 µg/mL (≈ 38.3 µM)
CCOC(=O)C1CCN(c2ncnc3c2c(-c2ccccc2)cn3-c2ccccc2)CC1	< 1 µg/mL
CC(C)=CCNc1ncnc2nc[nH]c12	> 30 µg/mL
COc1c(C)c2c(c(O)c1C/C=C(\C)CCC(=O)OCCN1CCOCC1)C(=O)OC2	> 64 µg/mL
CCOC(=O)N1CCN(Cc2nc3c(c(=O)n(C)c(=O)n3C)n2CCC(C)C)CC1	> 62 µg/mL
CN(Cc1cnc2nc(N)nc(N)c2n1)c1ccc(C(=O)N[C@@H](CCC(=O)O)C(=O)O)cc1	> 67 µg/mL
CN1CCCC(CC2c3ccccc3Sc3ccccc32)C1.Cl (stereo not given)	> 46 µg/mL
CCn1nc(C2CCN(C(=O)CCO)CC2)nc1-c1cnc(N)c(-c2nnc(C(C)(C)C)o2)n1	> 69 µg/mL
Nc1nc2c(s1)C(c1c(Cl)cccc1Cl)CC(=O)N2 (stereo not given)	< 1 µg/mL
Cn1cc(Br)c(C2N=C(Nc3nc4ccccc4o3)NC3=C2C(=O)CCC3)n1 (stereo not given)	24.7 µg/mL (≈ 56.1 µM)
Cc1cccc(-n2cnc3cc(C(=O)N4CCCC(C(C)C)C4)ccc32)c1 (stereo not given)	5.59 µg/mL (≈ 15.5 µM)
COc1ccnc(NC(=S)N2CCN(c3ccccc3C(F)(F)F)CC2)c1	7 µg/mL (≈ 17.7 µM)
NC(=O)C1CCN(c2ncc(-c3ccc(Br)cc3)s2)CC1	1.62 µg/mL (≈ 4.42 µM)
CCn1c(=O)cc(OCC(=O)N2CCN(c3cccc(Cl)c3)CC2)c2ccccc21	2.64 µg/mL (≈ 6.2 µM)
CN(C(=O)CSc1nc2c(c(=O)[nH]1)CCCC2)c1ccccc1	> 49 µg/mL
COc1cc(N2CCC(N3CCN(C)CC3)CC2)ccc1Nc1ncc(Cl)c(Nc2ccccc2P(C)(C)=O)n1	> 86 µg/mL
NC(=O)C1CCN(c2nnc(-c3ccc4c(c3)OCCCO4)s2)CC1	9.84 µg/mL (≈ 27.3 µM)
Cc1ccnc(NC(=S)N2CCN(c3cc(Cl)cc(Cl)c3)CC2)c1	2.32 µg/mL (≈ 6.09 µM)
Cc1c(-c2nsc(NC(=O)c3cccc(Cl)c3)n2)nnn1-c1ccccc1C(F)(F)F	< 1 µg/mL
CCOC(=O)C1CCN(c2nc(-c3ccc(Br)cc3)cs2)CC1	< 1 µg/mL

Compound	solubility kinetic
O=C1CCCC2=C1C1(CCS(=O)(=O)C1)N=C(Nc1nc3ccccc3o1)N2 (stereo not given)	1.02 µg/mL (≈ 2.65 µM)
O=C1CCCC2=C1C(c1ccccc1I)N=C(Nc1nc3ccccc3o1)N2 (stereo not given)	< 1 µg/mL
Clc1ccc(-c2nnc(C3CCCCC3)o2)cc1	< 1 µg/mL
COCCOc1cnc2ccn([C@H](C)c3nnc4c(F)cc(-c5cnn(C)c5)cn34)c(=O)c2c1	> 68 µg/mL
OCCOCCN1CCN(C(c2ccccc2)c2ccc(Cl)cc2)CC1 (stereo not given)	> 55 µg/mL
N#Cc1cccc(-c2nccc(-n3ccnc3)n2)c1	7.26 µg/mL (≈ 29.4 µM)
CC1=C[C@@H](CNC(C)C)[C@H](C(C)C)C[C@H]1Cc1nnc(-c2ccncc2)o1	> 54 µg/mL
O=C1Nc2cccc(Cl)c2/C1=C\c1cc(Cl)c(O)c(Cl)c1	< 1 µg/mL
NC(=O)c1ccc(-c2nc3c([nH]2)CN(C(=O)CN2CCOCC2)CC3)cc1	> 55 µg/mL
N#Cc1nc(-c2cccc3ccccc23)oc1NC1COC1	< 1 µg/mL
CCCCN(C)C(=O)c1c(C)sc2ccn(CCC)c(=O)c12	> 32 µg/mL
Cc1c(C(=O)NN2CCCCC2)nn(-c2ccc(Cl)cc2Cl)c1-c1ccc(Cl)cc1	< 1 µg/mL
O=C(Nc1ccc(Cl)cc1)Nc1ccc(Cl)c(Cl)c1	< 1 µg/mL
CCN1CCc2c(sc(NC(=O)Nc3ccc(Cl)c(Cl)c3)c2C(N)=O)C1	< 1 µg/mL
O=c1cc(CN2CCCN(c3ccc(C(F)(F)F)cn3)CC2)nc2ccccn12	> 60 µg/mL
O=C(c1ccncc1)N1CCC2(CCCN(C(c3ccccc3)c3ccccc3)C2)CC1	< 1 µg/mL
CN1Cc2c(ccc3c2OCO3)[C@@H]2[C@H]1c1cc3c(cc1C[C@@H]2O)OCO3	> 52 µg/mL
O=C(Nc1ccc2c(N3CCCCC3)ncnc2c1)c1cc(F)cc(F)c1	< 1 µg/mL
O=C(O)C(=O)O.Oc1ccccc1NCC(O)Cn1ccc2ccccc21 (stereo not given)	8.51 µg/mL
COc1ccc(NC(=O)c2[nH]c(C)c(C(C)=O)c2C)cc1S(=O)(=O)N1CCCCC1	34.2 µg/mL (≈ 79 µM)
CC(C)CNC(=O)c1cn2cc(-c3ccccc3)sc2n1	5.33 µg/mL (≈ 17.8 µM)
Nc1cc2nc3ccccc3oc-2cc1=O	17.9 µg/mL (≈ 84.6 µM)

Results, then the compound that gave them:

solubility kinetic	Compound
< 1 µg/mL	Cc1ccc(S(=O)(=O)Nc2cnccc2C(=O)Nc2nc(-c3ccc(C)c(C)c3)cs2)cc1
< 1 µg/mL	Fc1ccc(Nc2nc(-c3ccncc3Cl)nc3ccccc23)cc1F
8.86 µg/mL (≈ 22.8 µM)	Oc1ccc(-c2nc(C3CC3)nc3c2CCN(Cc2ccc(F)cc2)CC3)cc1
< 1 µg/mL	Cc1ccc(NS(=O)(=O)c2ccc(C(=O)Nc3nc(-c4ccccc4)cs3)cc2)cc1
2.35 µg/mL (≈ 4.74 µM)	COc1ccc(-c2nc3ccccc3c(=O)n2Cc2ccco2)cc1COc1ccc(NC(C)=O)cc1
< 1 µg/mL	CCC(=O)NC(c1ccco1)c1cc(Cl)c2cccnc2c1O (stereo not given)
13.2 µg/mL (≈ 39.8 µM)	Fc1ccccc1CNCc1ccc(-c2ccnc3[nH]ccc23)cc1
7.15 µg/mL (≈ 19 µM)	Cc1ccccc1C(=O)Nc1ccc2c(c1)CCCN2C(=O)c1cccs1
2.48 µg/mL (≈ 8.71 µM)	Fc1ccc(Nc2nccc(-c3ccncc3)n2)cc1F
< 1 µg/mL	Cc1ccc(S(=O)(=O)Nc2ccc(C(=O)Nc3nc(-c4ccccc4)cs3)cc2Cl)cc1
19.2 µg/mL	COCCCOc1ccnc(CS(=O)c2nc3ccccc3[n-]2)c1C (stereo not given)
< 1 µg/mL	Fc1ccc(Nc2nc(-c3ccnc(N4CCCCC4)c3)nc3ccccc23)cc1F
4.93 µg/mL (≈ 11 µM)	O=C(Cc1nc2ccc(Cl)cc2[nH]1)Nc1ccc(S(=O)(=O)Nc2nccs2)cc1
40.3 µg/mL (≈ 86.8 µM)	CCc1ccc(NC(=O)c2[nH]c(C)c(C(C)=O)c2C)cc1[S+](=O)([O-])Nc1ccccc1C#N
< 1 µg/mL	CCOc1ccc(CCNC(=O)c2cc3ccccc3n2Cc2cc(C)cc(C)n2)cc1OCC
< 1 µg/mL	COC(=O)CNC(=O)c1nc(-c2ccc(F)cc2)c2ccccn12
> 70 µg/mL	O=C(Nc1nc(-c2ccccc2)cs1)c1ccncc1NS(=O)(=O)c1ccc(F)cc1F
< 1 µg/mL	CC(=O)c1c(C)[nH]c(C(=O)Nc2cccc([S+](=O)([O-])Nc3c(C)cccc3C)c2)c1C
< 1 µg/mL	CCc1ccc(C(=O)Nc2cc(CN3CCN(C)CC3)cc(C(F)(F)F)c2)cc1C#Cc1cnc2ccnn2c1
> 51 µg/mL	Cc1ccc(-n2ncc3c(Nc4cccc(C(=O)O)c4)ncnc32)cc1
< 1 µg/mL	Cc1ccc(S(=O)(=O)Nc2cccc(C(=O)Nc3nc(-c4ccccc4)cs3)c2)cc1
< 1 µg/mL	Cc1ccc(S(=O)(=O)Nc2cc(Cl)ccc2C(=O)Nc2nc(-c3ccccc3)cs2)cc1
30.4 µg/mL (≈ 79.9 µM)	COc1ccc(-c2ccc(C(=O)NC3CC(c4cc(=O)[nH]c(N)n4)C3)o2)cc1 (stereo not given)
> 71 µg/mL	COc1cccc(-c2csc(NC(=O)c3ccncc3NS(=O)(=O)c3ccc(C)cc3)n2)c1
< 1 µg/mL	CCOc1ccc(S(=O)(=O)NCc2cccnc2)cc1NC(=O)c1ccccc1F
< 1 µg/mL	CCS(=O)(=O)c1ncc(N(Cc2ccc(F)cc2)Cc2ccco2)c(C(=O)Nc2cc(C)ccc2C)n1
< 1 µg/mL	CCN(c1ccccc1)S(=O)(=O)c1cc(C(=O)Nc2ccc(Br)cc2)ccc1F
< 1 µg/mL	CC(=O)Nc1nc(-c2ccc3c(c2)CCN3C(=O)c2ccccc2C)c(C)s1

solubility kinetic	Compound
3.75 µg/mL (≈ 7.77 µM)	O=C(Nc1ccc(N2CCN(C(=O)c3ccccc3F)CC2)cc1)c1cncc(Br)c1
< 1 µg/mL	Fc1ccc(Nc2nc(-c3ccnc(C(F)(F)F)c3)nc3ccccc23)cc1F
< 1 µg/mL	Cc1ccc(-c2cc(C(=O)Nc3ccc(S(N)(=O)=O)cc3)c3cccc(C)c3n2)cc1C
> 39 µg/mL	Cc1ccc(-c2cc(C(=O)O)c3ccccc3n2)cc1
15.4 µg/mL (≈ 33.1 µM)	Cc1ccc(S(=O)(=O)Nc2cnccc2C(=O)Nc2nc(-c3cccc(C)c3)cs2)cc1
10.8 µg/mL (≈ 35.3 µM)	CCc1ccc(CNc2ccc3c(c2)ncn3C(C)(C)C)cc1
> 61 µg/mL	CC(=O)c1c(C)[nH]c(C(=O)Nc2cccc([S+](=O)([O-])Nc3ccncc3)c2)c1C
2.09 µg/mL (≈ 5.17 µM)	Cc1ccc(C(=O)N2CCc3sc(C(=O)NC(C)c4ccccc4)cc3C2)cc1 (stereo not given)
> 56 µg/mL	O=S(=O)(Nc1nccs1)c1ccc(NCc2cc(F)ccc2O)cc1
28.1 µg/mL (≈ 70.4 µM)	COc1cc(-c2ccnc3c2c(C)nn3-c2ccc(C(F)(F)F)cc2)ccc1O
< 1 µg/mL	Cc1ccc(NC2=C(c3ccc(C(F)(F)F)cc3)C(=O)c3ccccc32)cc1C
53.9 µg/mL (≈ 116 µM)	COc1cccc(S(=O)(=O)Nc2cnccc2C(=O)Nc2nc(-c3ccccc3)cs2)c1
1.06 µg/mL (≈ 2.24 µM)	CC1CCC(NC(=O)c2ccc3c(c2)N(Cc2ccccc2F)C(=O)c2ccccc2S3)CC1 (stereo not given)
> 66 µg/mL	CCN(CC)CCNC(=O)C1CCN(c2nn3cc(-c4ccc(F)cc4)nc3s2)CC1
< 1 µg/mL	N#Cc1ccc(NS(=O)(=O)c2ccc(NC(=O)Cc3ccc(F)c(Cl)c3)cc2)cc1
< 1 µg/mL	COc1cccc(Nc2nc(-c3ccncc3)nc3ccccc23)c1
< 1 µg/mL	CCOc1cc(CCNC(=O)c2cc3sccc3n2Cc2ccccc2)cc(F)c1OCC
< 1 µg/mL	O=C(O)Cc1ccc2oc(-c3ccc(NC(=O)/C=C/c4ccc(Br)cc4)c(F)c3)nc2c1
45.4 µg/mL (≈ 126 µM)	COc1ccc(CN2CCNc3cc(Nc4ccccc4)ncc3C2)cc1
< 1 µg/mL	CC(=O)Nc1cc(-c2nc(Nc3ccc(F)c(F)c3)c3ccccc3n2)ccn1
3.93 µg/mL (≈ 10.2 µM)	COc1cccc(CNc2ccc(S(=O)(=O)Nc3cccnc3)cc2)c1O
27.9 µg/mL (≈ 62.3 µM)	Cc1ccc(C)c(CN2CCC(CNC(=O)Nc3ccc(Br)cc3F)CC2)c1
< 1 µg/mL	CCN1C(=O)c2ccccc2[S@](=O)c2ccc(C(=O)N[C@H](C)c3ccc(Br)cc3)cc21
< 1 µg/mL	CCn1c(=NC(=O)c2ccc(S(=O)(=O)N3CCCCC3)cc2)sc2cccc(OC)c21
< 1 µg/mL	Cc1ccc2cccc(NC(=O)c3ccc(OC(C)C)cc3)c2n1
3.6 µg/mL (≈ 8.88 µM)	COc1cccc(CNc2ccc(S(=O)(=O)Nc3nccs3)cc2)c1OC
6.49 µg/mL (≈ 15.4 µM)	CCOC(=O)c1cnc2ccc(-c3cncc(NS(=O)(=O)c4ccccc4)c3)cn12
